Reference: ChEMBL document CHEMBL5154644, “Design, Synthesis, and Structure-Activity Relationship Optimization of Pyrazolopyrimidine Amide Inhibitors of Phosphoinositide 3-Kinase γ (PI3Kγ)” (J Med Chem, 2022)

Tests used:
Homo sapiens [1] = organism: Homo sapiens; test: Selectivity ratio of IC50 for inhibition of PI3Kdelta (unknown origin) to IC50 for inhibition of PI3Kgamma (unknown origin)
[2] = target: T1, Phosphatidylinositol 4,5-bisphosphate 3-kinase catalytic subunit gamma isoform (Homo sapiens, UniProt P48736); test: Inhibition of PI3Kgamma (unknown origin) using PIP2 as substrate preincubated for 1 hr followed by substrate addition and measured after 60 mins in presence of ATP by ADP-glo assay
T1 sequence (P48736 whole entry, canonical isoform): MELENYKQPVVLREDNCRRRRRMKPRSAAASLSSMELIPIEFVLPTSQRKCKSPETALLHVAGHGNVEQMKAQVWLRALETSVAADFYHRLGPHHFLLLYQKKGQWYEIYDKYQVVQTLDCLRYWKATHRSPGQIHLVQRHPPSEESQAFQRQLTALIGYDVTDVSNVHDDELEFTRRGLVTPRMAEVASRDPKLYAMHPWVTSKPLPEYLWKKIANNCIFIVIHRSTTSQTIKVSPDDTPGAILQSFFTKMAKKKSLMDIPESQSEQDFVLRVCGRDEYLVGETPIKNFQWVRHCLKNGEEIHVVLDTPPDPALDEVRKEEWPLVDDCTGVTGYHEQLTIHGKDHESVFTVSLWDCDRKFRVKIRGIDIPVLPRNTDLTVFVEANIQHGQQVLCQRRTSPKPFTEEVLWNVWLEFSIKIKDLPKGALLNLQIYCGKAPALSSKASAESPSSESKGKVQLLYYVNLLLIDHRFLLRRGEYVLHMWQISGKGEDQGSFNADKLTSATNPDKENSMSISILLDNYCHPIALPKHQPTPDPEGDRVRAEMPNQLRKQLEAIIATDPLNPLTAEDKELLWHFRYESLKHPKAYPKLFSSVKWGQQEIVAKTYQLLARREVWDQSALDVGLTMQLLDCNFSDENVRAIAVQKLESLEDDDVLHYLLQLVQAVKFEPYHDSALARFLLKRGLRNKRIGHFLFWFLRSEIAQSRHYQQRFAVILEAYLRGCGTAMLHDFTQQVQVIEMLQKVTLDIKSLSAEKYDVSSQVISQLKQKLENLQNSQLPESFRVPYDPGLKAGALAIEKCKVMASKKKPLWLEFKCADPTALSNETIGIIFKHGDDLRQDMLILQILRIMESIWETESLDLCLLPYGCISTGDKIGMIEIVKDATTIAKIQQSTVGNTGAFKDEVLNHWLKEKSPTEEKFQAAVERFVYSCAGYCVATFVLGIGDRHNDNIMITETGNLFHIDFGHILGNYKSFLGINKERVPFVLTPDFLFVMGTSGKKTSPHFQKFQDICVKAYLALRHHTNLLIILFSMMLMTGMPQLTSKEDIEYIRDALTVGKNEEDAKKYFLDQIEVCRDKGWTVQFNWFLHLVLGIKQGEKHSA

Homo sapiens [3] = organism: Homo sapiens; test: Selectivity ratio of IC50 for inhibition of PI3Kalpha (unknown origin) to IC50 for inhibition of PI3Kgamma (unknown origin)
[4] = target: T2, Phosphatidylinositol 4,5-bisphosphate 3-kinase catalytic subunit delta isoform (Homo sapiens, UniProt O00329); test: Inhibition of PI3Kdelta (unknown origin) using PIP2 as substrate preincubated for 1 hr followed by substrate addition and measured after 60 mins in presence of ATP by ADP-glo assay
T2 sequence (O00329 whole entry): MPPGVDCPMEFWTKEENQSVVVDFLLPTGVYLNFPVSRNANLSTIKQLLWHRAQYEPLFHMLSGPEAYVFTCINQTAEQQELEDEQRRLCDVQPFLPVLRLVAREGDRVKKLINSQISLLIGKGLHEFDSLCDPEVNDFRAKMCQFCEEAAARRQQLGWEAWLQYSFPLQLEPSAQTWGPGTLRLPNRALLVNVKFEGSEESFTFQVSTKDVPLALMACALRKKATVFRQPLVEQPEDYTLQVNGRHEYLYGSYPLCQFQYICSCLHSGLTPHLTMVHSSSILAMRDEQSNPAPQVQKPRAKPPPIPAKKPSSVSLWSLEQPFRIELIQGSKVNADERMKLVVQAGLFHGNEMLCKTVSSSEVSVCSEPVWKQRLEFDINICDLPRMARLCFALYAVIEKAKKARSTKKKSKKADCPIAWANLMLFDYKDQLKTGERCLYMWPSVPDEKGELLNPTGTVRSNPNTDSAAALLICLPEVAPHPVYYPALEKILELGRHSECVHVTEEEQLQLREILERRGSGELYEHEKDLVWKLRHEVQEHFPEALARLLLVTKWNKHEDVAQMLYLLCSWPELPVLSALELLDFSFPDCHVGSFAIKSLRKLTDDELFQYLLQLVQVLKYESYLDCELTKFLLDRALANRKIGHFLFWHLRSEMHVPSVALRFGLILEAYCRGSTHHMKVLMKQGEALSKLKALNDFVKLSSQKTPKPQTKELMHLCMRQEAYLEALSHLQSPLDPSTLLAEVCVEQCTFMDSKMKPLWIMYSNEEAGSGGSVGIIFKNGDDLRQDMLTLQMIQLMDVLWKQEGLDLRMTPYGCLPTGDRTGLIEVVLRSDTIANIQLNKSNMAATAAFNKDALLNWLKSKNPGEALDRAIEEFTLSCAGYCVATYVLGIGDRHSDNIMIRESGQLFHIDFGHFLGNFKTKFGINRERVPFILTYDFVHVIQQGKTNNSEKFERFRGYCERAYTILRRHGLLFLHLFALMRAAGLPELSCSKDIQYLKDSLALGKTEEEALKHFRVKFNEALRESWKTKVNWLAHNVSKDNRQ

[5] = Metabolic stability in rat hepatocyte assessed as intrinsic clearance per 10^8 cells at 0.5 uM by LC-MS/MS analysis; type: ADME, cell-based; conditions: hepatocytes
[6] = target: T1, Phosphatidylinositol 4,5-bisphosphate 3-kinase catalytic subunit gamma isoform; test: Inhibition of PI3Kgamma (unknown origin) in […] stimulated human THP-1 cells assessed as reduction in Akt phosphorylation level at Ser473 residue preincubated for 60 mins followed by rhMCP-1 stimulation and measured after 2 mins by AlphaLisa assay; type: cell-based
[7] = Hepatic clearance in Sprague-Dawley rat by LC-MS/MS analysis; type: ADME; conditions: in vivo
[8] = target: Phosphatidylinositol 4,5-bisphosphate 3-kinase catalytic subunit alpha isoform (Homo sapiens, UniProt P42336); test: Inhibition of PI3Kalpha (unknown origin) using PIP2 as substrate preincubated for 1 hr followed by substrate addition and measured after 60 mins in presence of ATP by ADP-glo assay
Chain of Phosphatidylinositol 4,5-bisphosphate 3-kinase catalytic subunit alpha isoform (P42336 whole entry, canonical isoform): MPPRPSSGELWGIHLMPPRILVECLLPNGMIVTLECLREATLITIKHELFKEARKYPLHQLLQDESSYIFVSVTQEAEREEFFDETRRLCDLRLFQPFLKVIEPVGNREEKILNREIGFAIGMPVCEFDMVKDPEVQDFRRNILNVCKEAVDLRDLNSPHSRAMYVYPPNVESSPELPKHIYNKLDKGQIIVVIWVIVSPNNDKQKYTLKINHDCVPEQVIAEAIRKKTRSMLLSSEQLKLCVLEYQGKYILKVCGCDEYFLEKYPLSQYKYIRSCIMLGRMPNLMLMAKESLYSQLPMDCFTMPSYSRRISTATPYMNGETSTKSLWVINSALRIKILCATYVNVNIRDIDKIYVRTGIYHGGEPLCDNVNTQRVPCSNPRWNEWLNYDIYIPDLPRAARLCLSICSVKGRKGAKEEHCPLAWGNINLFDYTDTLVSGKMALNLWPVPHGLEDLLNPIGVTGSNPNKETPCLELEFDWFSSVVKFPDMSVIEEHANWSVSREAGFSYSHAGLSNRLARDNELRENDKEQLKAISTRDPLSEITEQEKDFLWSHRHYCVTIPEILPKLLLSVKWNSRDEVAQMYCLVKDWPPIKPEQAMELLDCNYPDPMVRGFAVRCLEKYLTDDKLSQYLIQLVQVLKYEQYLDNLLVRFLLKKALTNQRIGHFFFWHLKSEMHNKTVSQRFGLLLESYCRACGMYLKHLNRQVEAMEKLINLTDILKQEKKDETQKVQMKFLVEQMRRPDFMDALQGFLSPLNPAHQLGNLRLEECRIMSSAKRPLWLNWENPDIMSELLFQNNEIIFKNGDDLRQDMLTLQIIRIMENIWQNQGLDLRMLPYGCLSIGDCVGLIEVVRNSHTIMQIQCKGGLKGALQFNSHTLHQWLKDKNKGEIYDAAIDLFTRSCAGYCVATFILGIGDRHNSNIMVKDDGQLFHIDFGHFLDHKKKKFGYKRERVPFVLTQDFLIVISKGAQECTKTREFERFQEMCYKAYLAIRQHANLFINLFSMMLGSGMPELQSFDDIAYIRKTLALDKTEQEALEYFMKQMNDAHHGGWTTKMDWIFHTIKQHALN

[9] = Metabolic stability in human hepatocytes assessed as intrinsic clearance per 10^6 cells at 0.5 uM by LC-MS/MS analysis; type: ADME, cell-based, Hepatocyte; conditions: read-out: CLH
CYP3A4 = CYP3A4 (Homo sapiens, UniProt P08684); test: in vitro; conditions: human liver microsomes, probe midazolam
Chain of CYP3A4 (P08684 whole entry): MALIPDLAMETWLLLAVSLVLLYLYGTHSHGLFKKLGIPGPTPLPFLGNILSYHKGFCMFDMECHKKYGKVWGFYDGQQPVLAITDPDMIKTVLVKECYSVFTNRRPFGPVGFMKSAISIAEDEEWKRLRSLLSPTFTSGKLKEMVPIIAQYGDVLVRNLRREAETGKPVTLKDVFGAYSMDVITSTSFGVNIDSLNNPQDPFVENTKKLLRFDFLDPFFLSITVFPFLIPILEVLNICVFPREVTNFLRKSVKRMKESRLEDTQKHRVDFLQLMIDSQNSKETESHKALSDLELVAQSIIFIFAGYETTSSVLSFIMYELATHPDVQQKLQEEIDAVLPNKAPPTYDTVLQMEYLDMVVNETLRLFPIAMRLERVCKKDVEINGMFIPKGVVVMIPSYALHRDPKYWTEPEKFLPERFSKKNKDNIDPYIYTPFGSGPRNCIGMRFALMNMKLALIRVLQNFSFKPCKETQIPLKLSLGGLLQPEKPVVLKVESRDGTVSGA
Description: Time dependent inhibition of CYP3A4 in human liver microsomes at 10 uM using midazolam as substrate preincubated for 30 mins in presence of NADPH by LC/MS/MS analysis relative to control

SMILES	Ratio IC50 (Homo sapiens [1])	IC50 [2]	Ratio IC50 (Homo sapiens [3])	IC50 [4]	hepatocyte intrinsic clearance [5]	IC50 [6]	CLH [7]	IC50 [8]	hepatocyte CLint at 0.5 µM [9]	inhibition at 30 min, 10 µM (CYP3A4)
Cc1cc(-c2ccn3nc(N)c(C(=O)N[C@H]4CC[C@@](C)(O)CC4)c3n2)cc2c1C(=O)N([C@@H](C)C1CC1)C2	> 2090	4.8 nM	> 2090	> 10000 nM	11.6 µL/min	102 nM	2 L/h/kg	> 10000 nM	< 1.2 µL/min/1e6 cells	
Cc1cc(-c2ccn3nc(N)c(C(=O)N[C@H]4CCOC4)c3n2)cc2c1C(=O)N([C@@H](C)C1CC1)C2	352	1.8 nM	580	598 nM	13 µL/min	148 nM	7.8 L/h/kg	974 nM	9.35 µL/min/1e6 cells	
Cc1cc(-c2ccn3ncc(-c4cnn(C)c4)c3n2)cc2c1C(=O)N([C@@H](C)C1CC1)C2					10.3 µL/min	468 nM			27.2 µL/min/1e6 cells	67%
Cc1cc(-c2ccn3nc(N)c(C(=O)N[C@H]4CC[C@H](N)CC4)c3n2)cc2c1C(=O)N([C@@H](C)C1CC1)C2	2250	2 nM	> 4960	4530 nM	19.3 µL/min	276 nM		> 10000 nM	4.74 µL/min/1e6 cells	
Cc1cc(-c2ccn3nc(N)c(-c4cnn(C)c4)c3n2)cc2c1C(=O)N([C@@H](C)C1CC1)C2							1.3 L/h/kg			
Cc1cc(-c2ccn3nc(N)c(C(=O)NC4CC4)c3n2)cc2c1C(=O)N(CC1CC1)C2	84	10.1 nM	42	911 nM		258 nM		431 nM		
COc1cc(-c2ccn3nc(N)c(C(=O)NC4CC4)c3n2)cc2c1C(=O)N([C@@H](C)C1CC1)C2	122	3.8 nM	74	459 nM	2.07 µL/min	121 nM		281 nM	1.81 µL/min/1e6 cells	28%
CC[C@H](N1Cc2cc(-c3ccn4nc(N)c(C(=O)NC5CC5)c4n3)cc(NS(C)(=O)=O)c2C1=O)C(F)(F)F	403	3.3 nM		1310 nM	6.67 µL/min	31 nM		2830 nM	2.91 µL/min/1e6 cells	62%
CS(=O)(=O)Nc1cc(-c2ccn3nc(N)c(C(=O)NC4CC4)c3n2)cc2c1C(=O)N([C@@H](C1CC1)C(F)(F)F)C2	2780	1.7 nM		4580 nM	< 1.2 µL/min	88 nM		5360 nM	< 1.2 µL/min/1e6 cells	22%
CNS(=O)(=O)c1cc(-c2ccn3nc(N)c(C(=O)N[C@H]4CC[C@](C)(O)CC4)c3n2)cc2c1C(=O)N([C@@H](C)C(F)(F)F)C2	22	0.9 nM	53	20 nM	< 1.2 µL/min	32 nM		49 nM	2.77 µL/min/1e6 cells	
C[C@H](N1Cc2cc(-c3ccn4nc(N)c(C(=O)NC5CC5)c4n3)cc(NS(C)(=O)=O)c2C1=O)C(F)(F)F	89	0.8 nM		68 nM	< 1.2 µL/min	16 nM		97 nM	< 1.2 µL/min/1e6 cells	14%
C[C@@H](C1CC1)N1Cc2cc(-c3ccn4nc(N)c(C(=O)NC5CC5)c4n3)cc(Cl)c2C1=O	589	2.4 nM	282	1430 nM	2.89 µL/min	103 nM		686 nM	< 1.2 µL/min/1e6 cells	36%
CC(C)[C@H](N1Cc2cc(-c3ccn4nc(N)c(C(=O)NC5CC5)c4n3)cc(NS(C)(=O)=O)c2C1=O)C(F)(F)F	323	8.5 nM		2750 nM	3.65 µL/min	150 nM		3680 nM	6.52 µL/min/1e6 cells	55%
C[C@@H](C1CC1)N1Cc2cc(-c3ccn4nc(N)c(C(=O)NC5CC5)c4n3)cc(OC(F)F)c2C1=O	907	1.8 nM	330	2120 nM	12.6 µL/min	71 nM		602 nM	40.4 µL/min/1e6 cells	16%
C[C@@H](C1CC1)N1Cc2cc(-c3ccn4nc(N)c(C(=O)NC5CC5)c4n3)cc(S(=O)(=O)C3CCC3)c2C1=O	124	3 nM		376 nM	4.14 µL/min	50 nM		512 nM	4.89 µL/min/1e6 cells	35%
CC(C)S(=O)(=O)c1cc(-c2ccn3nc(N)c(C(=O)NC4CC4)c3n2)cc2c1C(=O)N([C@@H](C)C1CC1)C2				714 nM	< 1.2 µL/min		1.7 L/h/kg	952 nM	2.43 µL/min/1e6 cells	
Cc1cc(-c2ccn3nc(N)c(C(=O)N[C@H]4CC[C@H](C(=O)O)CC4)c3n2)cc2c1C(=O)N([C@@H](C)C1CC1)C2	9	2.1 nM	13	20 nM		397 nM		29 nM		
CCN1Cc2cc(-c3ccn4nc(N)c(C(=O)NC5CC5)c4n3)cc(C)c2C1=O	32	5.6 nM	21	179 nM		338 nM		118 nM		
CC(C)c1cc(-c2ccn3nc(N)c(C(=O)NC4CC4)c3n2)cc2c1C(=O)N([C@@H](C)C1CC1)C2	322	4.6 nM	220	1480 nM	2.41 µL/min	54 nM		1010 nM	< 1.2 µL/min/1e6 cells	28%
CNS(=O)(=O)c1cc(-c2ccn3nc(N)c(C(=O)N[C@@H](CO)C4CC4)c3n2)cc2c1C(=O)N([C@@H](C)C(F)(F)F)C2	65	1.3 nM	274	86 nM	3.82 µL/min	96 nM		363 nM	1.61 µL/min/1e6 cells	
Cc1cc(-c2ccn3nc(N)c(C(=O)NC4CC4)c3n2)cc2c1C(=O)N([C@@H](C1CC1)C(F)(F)F)C2	> 566	17.7 nM	> 566	> 10000 nM		795 nM		> 10000 nM		
C[C@@H](C1CC1)N1Cc2cc(-c3ccn4nc(N)c(C(=O)NC5CC5)c4n3)cc(C3CC3)c2C1=O	178	4.7 nM	122	829 nM	2.97 µL/min	66 nM		572 nM	4.23 µL/min/1e6 cells	38%
